Literature values, collected in PMC3880798 (Clinical cancer research : an official journal of the …, 2013).
Read-outs that look alike come from different tables or passages of the source.

Legend:
[1] = cited from earlier work
GIST = conditions: cited from earlier work
c-Kit = conditions: intact cellular systems; cited from earlier work

Cc1ccc(Nc2nccc(N(C)c3ccc4c(C)n(C)nc4c3)n2)cc1S(N)(=O)=O [pazopanib]
Patients with proteinuria [1]: 51%

CCN(CC)CCNC(=O)c1c(C)[nH]c(/C=C2\C(=O)Nc3ccc(F)cc32)c1C [sunitinib]
Incidence of PPE [1]: up to 20% | Median time to progression (GIST; standard second-line therapy): 27 weeks

Cc1ccc(NC(=O)c2ccc(CN3CCN(C)CC3)cc2)cc1Nc1nccc(-c2cccnc2)n1 [imatinib]
Potency for wild-type versus mutant c-Kit (c-Kit): significantly lower potency for wild-type c-Kit relative to mutant c-Kit | Median time to progression (GIST): approximately 2 years | Median duration of response (GIST; first-line): about 2 years

Cc1cn(-c2cc(NC(=O)c3ccc(C)c(Nc4nccc(-c5cccnc5)n4)c3)cc(C(F)(F)F)c2)cn1 [nilotinib]
Disease stabilization (GIST): 38% | Median duration of disease stabilization (GIST): 12 weeks
